According to publication PMC11167782, “Tunlametinib (HL-085) plus vemurafenib in patients with advanced BRAF V600-mutant solid tumors: an open-label, single-arm, multicenter, phase I study” (Experimental Hematology & Oncology, 2024):

What was measured:
[1] = system: patients; design: method as in PMID 21639808; conditions: phase III trial; cited from earlier work
[2] = Phase I study: plasma pharmacokinetics (UPLC-MS/MS); conditions: for AUC(0-t) / AUC / Cmax / Tmax: human, plasma; for AUC(0-t): AUClast; for AUC(0-t) / AUC / Cmax: mean (SD); for AUC: AUCtau
Description: PK assessments were performed using a validated ultra-performance liquid chromatography-tandem mass spectrometry method.
All samples analyzed within established storage stability periods.

[3] = system: CYP3A4; design: method as in earlier work; conditions: cited from earlier work
[4] = system: BRAF V600-mutant PTC; design: method as in PMID 35658604; conditions: monotherapy; cited from earlier work
[5] = system: BRAF V600-mutant NSCLC; conditions: monotherapy; cited from earlier work
[6] = Multiple dose, Tunlametinib 9mg BID + vemurafenib 720mg BID
[7] = Multiple dose, Tunlametinib 9mg BID + vemurafenib 960mg BID
[8] = Multiple dose, Tunlametinib 12mg BID + vemurafenib 720mg BID
[9] = Multiple dose, Tunlametinib 12mg BID + vemurafenib 960mg BID
[10] = Multiple dose, Vemurafenib 720mg BID Total
[11] = Multiple dose, Vemurafenib 960mg Total
[12] = Single dose, Tunlametinib 9mg BID + vemurafenib 720mg BID
[13] = Single dose, Tunlametinib 9mg BID + vemurafenib 960mg BID
[14] = Single dose, Tunlametinib 12mg BID + vemurafenib 720mg BID
[15] = Single dose, Tunlametinib 12mg BID + vemurafenib 960mg BID
[16] = 720 mg, Multiple dose, Vemurafenib 720mg BID Total
[17] = 720 mg, Single dose, Vemurafenib 720mg BID Total
[18] = 960 mg, Multiple dose, Vemurafenib 960mg Total
[19] = 960 mg, Single dose, Vemurafenib 960mg Total
[20] = vemurafenib, multiple administrations, across doses

## CCCS(=O)(=O)Nc1ccc(F)c(C(=O)c2c[nH]c3ncc(-c4ccc(Cl)cc4)cc23)c1F [Vemurafenib, vemurafenib]
[1]
  Incidence of photosensitivity: 30%
[2]; [6]
  Cavg, mean (SD): 29792.81 (1092.82) ng/mL
  Fluctuation%, mean (SD): 37.17 (4.45) %
  RAUClast (accumulation ratio), mean (SD): 11.76 (5.15)
  RCmax (accumulation ratio), mean (SD): 8.92 (3.76)
  AUC(0-t): 376 µg·h/mL
  AUC: 358 µg·h/mL
  Cmax: 37400 ng/mL
[2]; [7]
  Cavg, mean (SD): 47113.74 (NC) ng/mL
  Fluctuation%, mean (SD): 19.95 (NC) %
  RAUClast (accumulation ratio), mean (SD): 36.26 (58.5)
  RCmax (accumulation ratio), mean (SD): 16.01 (16.13)
  AUC(0-t): 530 µg·h/mL
  AUC: 565 µg·h/mL
  Cmax: 49200 ng/mL
[2]; [8]
  Cavg, mean (SD): 34081.99 (20393.59) ng/mL
  Fluctuation%, mean (SD): 36.48 (16.11) %
  RAUClast (accumulation ratio), mean (SD): 10.61 (4.88)
  RAUCtau (accumulation ratio), mean (SD): 13.29 (4.87)
  RCmax (accumulation ratio), mean (SD): 8.54 (4.03)
  AUC(0-t): 379 µg·h/mL
  AUC: 409 µg·h/mL
  Cmax: 36800 ng/mL
[2]; [9]
  Cavg, mean (SD): 28324.83 (NC) ng/mL
  Fluctuation%, mean (SD): 25.42 (NC) %
  RAUClast (accumulation ratio), mean (SD): 10.75 (2.55)
  RCmax (accumulation ratio), mean (SD): 8.23 (1.79)
  AUC(0-t): 456 µg·h/mL
  AUC: 340 µg·h/mL
  Cmax: 42800 ng/mL
[2]; [10]
  Cavg, mean (SD): 32652.26 (15958.81) ng/mL
  Fluctuation%, mean (SD): 36.71 (12.64) %
  RAUClast (accumulation ratio), mean (SD): 11.10 (4.84)
  RAUCtau (accumulation ratio), mean (SD): 13.29 (4.87)
  RCmax (accumulation ratio), mean (SD): 8.70 (3.77)
[2]; [11]
  Cavg, mean (SD): 45227.97 (17802.57) ng/mL
  Fluctuation%, mean (SD): 29.65 (16.23) %
  RAUClast (accumulation ratio), mean (SD): 23.92 (39.19)
  RAUCtau (accumulation ratio), mean (SD): 14.07 (NC)
  RCmax (accumulation ratio), mean (SD): 13.22 (11.54)
[2]; [12]
  AUC_%Extrap, mean (SD): 56.66 (6.57) %
  AUC(0-t): 45.8 µg·h/mL
  AUC: 55.2 µg·h/mL
  Cmax: 5710 ng/mL
[2]; [13]
  AUC_%Extrap, mean (SD): 57.98 (NC) %
  AUC(0-t): 65.3 µg·h/mL
  AUC: 118 µg·h/mL
  Cmax: 7360 ng/mL
[2]; [14]
  AUC_%Extrap, mean (SD): 61.30 (6.78) %
  AUC(0-t): 37.2 µg·h/mL
  AUC: 38.2 µg·h/mL
  Cmax: 4610 ng/mL
[2]; [15]
  AUC_%Extrap, mean (SD): 64.58 (NC) %
  AUC(0-t): 47.1 µg·h/mL
  AUC: 37.7 µg·h/mL
  Cmax: 5710 ng/mL
[2]; Single dose, Vemurafenib 720mg BID Total
  AUC_%Extrap, mean (SD): 60.37 (6.66) %
[2]; Single dose, Vemurafenib 960mg Total
  AUC_%Extrap, mean (SD): 61.29 (11.94) %
[2]; [16]
  AUC(0-t): 372 µg·h/mL
  AUC: 392 µg·h/mL
  Cmax: 36600 ng/mL
[2]; [17]
  AUC(0-t): 39.3 µg·h/mL
  AUC: 41 µg·h/mL
  Cmax: 4890 ng/mL
[2]; 720 mg, Tmax, median (range), Multiple dose, Vemurafenib 720mg BID Total
  Tmax: 2.07 h
[2]; 720 mg, Tmax, median (range), Single dose, Vemurafenib 720mg BID Total
  Tmax: 4 h
[2]; [18]
  AUC(0-t): 503 µg·h/mL
  AUC: 543 µg·h/mL
  Cmax: 48300 ng/mL
[2]; [19]
  AUC(0-t): 50.5 µg·h/mL
  AUC: 61.2 µg·h/mL
  Cmax: 6220 ng/mL
[2]; 960 mg, Tmax, median (range), Multiple dose, Vemurafenib 960mg Total
  Tmax: 3.99 h
[2]; 960 mg, Tmax, median (range), Single dose, Vemurafenib 960mg Total
  Tmax: 4.01 h
[2]; Tmax, median (range), Multiple dose, Tunlametinib 9mg BID + vemurafenib 720mg BID
  Tmax: 3.92 h
[2]; Tmax, median (range), Multiple dose, Tunlametinib 9mg BID + vemurafenib 960mg BID
  Tmax: 4.07 h
[2]; Tmax, median (range), Multiple dose, Tunlametinib 12mg BID + vemurafenib 720mg BID
  Tmax: 1.93 h
[2]; Tmax, median (range), Multiple dose, Tunlametinib 12mg BID + vemurafenib 960mg BID
  Tmax: 3.95 h
[2]; Tmax, median (range), Single dose, Tunlametinib 9mg BID + vemurafenib 720mg BID
  Tmax: 4 h
[2]; Tmax, median (range), Single dose, Tunlametinib 9mg BID + vemurafenib 960mg BID
  Tmax: 3.96 h
[2]; Tmax, median (range), Single dose, Tunlametinib 12mg BID + vemurafenib 720mg BID
  Tmax: 4 h
[2]; Tmax, median (range), Single dose, Tunlametinib 12mg BID + vemurafenib 960mg BID
  Tmax: 4.07 h
[2]; oral, Median Tmax, vemurafenib, single-dose
  Tmax: ~4 h
[2]; [20]
  Average accumulation ratio based on AUClast: 10.6 to 36.3
  Average accumulation ratio based on AUCtau: 13.3 to 14.1
  Average accumulation ratio based on Cmax: 8.2 to 16.0
[3]
  Main metabolizing enzyme: metabolized mainly by CYP3A4

## CC(C)(C)c1nc(-c2cccc(NS(=O)(=O)c3c(F)cccc3F)c2F)c(-c2ccnc(N)n2)s1 [dabrafenib]
[4]
  ORR: 35%
[5]
  Median PFS: 5.5 months
  ORR: 33%
